From patent publication US20060073121A1, “Spray formulation for pungency enhancement in Capsicum” (priority 2004, published 2006)

Test system: Capsicum frutescens Mill
Assay: Spray of abiotic elicitors to flowers of field-grown plants; HPLC of phenyl propanoid intermediates and capsaicinoids in harvested fruits
Type: in vivo
Text: The seedlings of Capsicum frutescens Mill were raised in soil bed. The seeds of C. frutescens were collected from wild from BR Hills, […]. The 2 months old seedling plants were transplanted to the soil and grown under controlled conditions to avoid cross-pollination after the onset of flowering. The plants were established well 2 months after transplantation and started to flower by 90 days with proper agronomic practices with regard to irrigation, fertilizer application, weeding and care from major pests and diseases. The abiotic elicitor (Methyl Jasmonate) was purchased from Duchefa Pvt.LTD. Methyl Jasmonate stock solution was prepared and later used at different concentrations (1 mM, 2.5 mM and 5 mM) for spraying to the whole plant containing flowers, completely opened flowers, and braches containing flowers. The flowers of C. frutescens were sprayed with water, which was taken as control. […] The extracted samples were centrifuged at 4000 rpm for 10 minutes. The samples were subjected to High Performance Liquid Chromatography for quantification of phenyl proponoid intermediates and major Capsaicinoids. […] The detection was at 236 nm and flow rate was maintained at 1 ml/min. […] The reagent used was of HPLC grade. The intermediates of phenyl proponoid pathway (Phenylalanine, Cinnamic acid, Coumaric acid, Caffeic acid, Ferulic acid and Vanillylamine) and two major Capsaicinoids (Capsaicin and Dihydrocapsaicin) were purchased from Sigma Co. […] Standard deviation of samples was calculated according to Tukey's method. The seedlings of Capsicum frutescens Mill were raised in soil bed. The seeds of C. frutescens were collected from BR. Hills, […]. The 2 months old seedling plants were transplanted to the soil and grown under controlled conditions to avoid cross-pollination after the onset of flowering. The plants were established well two months after transplantation and started to flower by 90 days with proper agronomic practices with regard to irrigation, fertilizer application, weeding and care from major pests and diseases. […] USA. […] The flowers of C. frutescens were sprayed with water, which was taken as control. […] The extracted samples were centrifuged at 4000 rpm for 10 minutes. The samples were subjected to High Performance Liquid Chromatography for quantification of phenyl proponoid intermediates and major Capsaicinoids. […] The detection was at 236nm and flow rate was maintained at 1 ml/min. […] The reagent used was of HPLC grade. The intermediates of phenyl propanoid pathway (Phenylalanine, Cinnamic acid, Coumaric acid, Caffeic acid, Ferulic acid and Vanillylamine) and two major Capsaicinoids (Capsaicin and Dihydrocapsaicin) were purchased from Sigma Co. […] Standard deviation of samples was calculated according to Tukey's method.

[1] = fruits 25 days after anthesis, 1 mM sprayed
[2] = fruits 25 days after anthesis, 2.5 mM sprayed
[3] = fruits 25 days after anthesis, 5 mM sprayed
[4] = fruits 30 days after anthesis, 1 mM sprayed
[5] = fruits 30 days after anthesis, 2.5 mM sprayed
[6] = fruits 30 days after anthesis, 5 mM sprayed
[7] = fruits 35 days after anthesis, 1 mM sprayed
[8] = fruits 35 days after anthesis, 2.5 mM sprayed
[9] = fruits 35 days after anthesis, 5 mM sprayed
[10] = fruits 40 days after anthesis, 1 mM sprayed
[11] = fruits 40 days after anthesis, 2.5 mM sprayed
[12] = fruits 40 days after anthesis, 5 mM sprayed

With CC/C=C\CC1C(=O)CCC1CC(=O)OC (centres unmarked) [Methyl Jasmonate] the “Caffeic Acid level” value [1] was 3 ± 0.9 µM, the Capsaicin level [1] was 17 ± 1.8 µM and the “Cinnamic Acid level” value [1] was 10 ± 1.0 µM. The “Coumaric Acid level” value [1] was 44 ± 3.2 µM, the Dihydrocapsaicin level [1] was 5 ± 0.8 µM and the “Ferulic Acid level” value [1] was 33 ± 1.9 µM. For the same compound, the Phenylalanine level [1] was 388 ± 8.2 µM, the Vanillylamine level [1] was 49 ± 3.4 µM and the “Caffeic Acid level” value [2] was 3 ± 0.8 µM. The Capsaicin level [2] was 18 ± 1.2 µM, the “Cinnamic Acid level” value [2] was 11 ± 0.8 µM and the “Coumaric Acid level” value [2] was 45 ± 3.8 µM. The Dihydrocapsaicin level [2] was 6 ± 0.5 µM, the “Ferulic Acid level” value [2] was 49 ± 2.5 µM and the Phenylalanine level [2] was 424 ± 9.2 µM. For the same compound, the Vanillylamine level [2] was 63 ± 4.5 µM, the “Caffeic Acid level” value [3] was 3 ± 0.6 µM and the Capsaicin level [3] was 16 ± 1.4 µM. The “Cinnamic Acid level” value [3] was 9 ± 0.8 µM, the “Coumaric Acid level” value [3] was 42 ± 3.9 µM and the Dihydrocapsaicin level [3] was 7 ± 0.8 µM. For the same compound, the “Ferulic Acid level” value [3] was 48 ± 3.4 µM, the Phenylalanine level [3] was 391 ± 10.0 µM and the Vanillylamine level [3] was 42 ± 2.9 µM. The “Caffeic Acid level” value [4] was 4 ± 1.1 µM, the Capsaicin level [4] was 41 ± 3.5 µM and the “Cinnamic Acid level” value [4] was 12 ± 0.9 µM. For the same compound, the “Coumaric Acid level” value [4] was 38 ± 3.4 µM, the Dihydrocapsaicin level [4] was 13 ± 1.0 µM and the “Ferulic Acid level” value [4] was 68 ± 5.4 µM. For the same compound, the Phenylalanine level [4] was 563 ± 12.2 µM, the Vanillylamine level [4] was 61 ± 5.4 µM and the “Caffeic Acid level” value [5] was 12 ± 1.2 µM. The Capsaicin level [5] was 48 ± 3.6 µM, the “Cinnamic Acid level” value [5] was 35 ± 2.1 µM and the “Coumaric Acid level” value [5] was 47 ± 4.2 µM. For the same compound, the Dihydrocapsaicin level [5] was 14 ± 0.9 µM, the “Ferulic Acid level” value [5] was 80 ± 4.5 µM and the Phenylalanine level [5] was 649 ± 8.7 µM. For the same compound, the Vanillylamine level [5] was 96 ± 6.9 µM, the “Caffeic Acid level” value [6] was 10 ± 0.9 µM and the Capsaicin level [6] was 48 ± 6.8 µM. The “Cinnamic Acid level” value [6] was 27 ± 1.8 µM, the “Coumaric Acid level” value [6] was 45 ± 3.8 µM and the Dihydrocapsaicin level [6] was 13 ± 0.7 µM. For the same compound, the “Ferulic Acid level” value [6] was 73 ± 4.5 µM, the Phenylalanine level [6] was 627 ± 7.4 µM and the Vanillylamine level [6] was 58 ± 5.1 µM. The “Caffeic Acid level” value [7] was 12 ± 1.2 µM, the Capsaicin level [7] was 36 ± 3.8 µM and the “Cinnamic Acid level” value [7] was 23 ± 1.5 µM. The “Coumaric Acid level” value [7] was 44 ± 4.2 µM, the Dihydrocapsaicin level [7] was 15 ± 1.2 µM and the “Ferulic Acid level” value [7] was 122 ± 8 µM. The Phenylalanine level [7] was 879 ± 5.9 µM, the Vanillylamine level [7] was 111 ± 10.8 µM and the “Caffeic Acid level” value [8] was 37 ± 3.2 µM. The “Cinnamic Acid level” value [8] was 68 ± 4.5 µM, the “Coumaric Acid level” value [8] was 84 ± 4.1 µM and the Dihydrocapsaicin level [8] was 19 ± 1.3 µM. The “Ferulic Acid level” value [8] was 150 ± 8 µM, the Phenylalanine level [8] was 1052 ± 11 µM and the Vanillylamine level [8] was 107 ± 10.2 µM. The “Caffeic Acid level” value [9] was 20 ± 1.2 µM, the Capsaicin level [9] was 35 ± 2.9 µM and the “Cinnamic Acid level” value [9] was 36 ± 3.2 µM. The “Coumaric Acid level” value [9] was 59 ± 3.8 µM, the Dihydrocapsaicin level [9] was 12 ± 1.0 µM and the “Ferulic Acid level” value [9] was 121 ± 12 µM. The Phenylalanine level [9] was 921 ± 8.9 µM, the Vanillylamine level [9] was 73 ± 7.1 µM and the “Caffeic Acid level” value [10] was 9 ± 0.8 µM. The Capsaicin level [10] was 33 ± 2.4 µM, the “Cinnamic Acid level” value [10] was 14 ± 1.2 µM and the “Coumaric Acid level” value [10] was 39 ± 1.9 µM. The Dihydrocapsaicin level [10] was 15 ± 1.2 µM, the “Ferulic Acid level” value [10] was 107 ± 11 µM and the Phenylalanine level [10] was 516 ± 8.4 µM. The Vanillylamine level [10] was 78 ± 6.8 µM, the “Caffeic Acid level” value [11] was 15 ± 1.2 µM and the Capsaicin level [11] was 42 ± 3.2 µM. The “Cinnamic Acid level” value [11] was 23 ± 1.9 µM, the “Coumaric Acid level” value [11] was 73 ± 2.4 µM and the Dihydrocapsaicin level [11] was 18 ± 1.4 µM. The “Ferulic Acid level” value [11] was 114 ± 12 µM, the Phenylalanine level [11] was 584 ± 9.2 µM and the Vanillylamine level [11] was 98 ± 5.8 µM. The “Caffeic Acid level” value [12] was 13 ± 1.3 µM, the Capsaicin level [12] was 28 ± 3.8 µM and the “Cinnamic Acid level” value [12] was 20 ± 1.5 µM. For the same compound, the “Coumaric Acid level” value [12] was 44 ± 4.1 µM, the Dihydrocapsaicin level [12] was 11 ± 1.3 µM and the “Ferulic Acid level” value [12] was 67 ± 4.5 µM. The Phenylalanine level [12] was 547 ± 7.4 µM and the Vanillylamine level [12] was 61 ± 5.1 µM.
